In assay [1] the target is T1, Heat shock protein HSP90 (Homo sapiens, UniProt P07900+P08238). Put plainly: Inhibition of FITC-geldanamycin binding to N-terminal GST-tagged Hsp90 (unknown origin) expressed in Escherichia coli at 100 uM measured after 15 mins by fluorescence polarization assay relative to control. (In fluorescence polarisation assays a small probe gives low polarisation when free and higher when bound to something large.)

Assay [2] has as its target T1, Heat shock protein HSP90. Put plainly: Binding affinity to N-terminal GST-tagged Hsp90 (unknown origin) expressed in Escherichia coli by ITC method. (Isothermal titration calorimetry measures the heat released or taken up as one component is titrated into another.)
The species entered for assay [3] is Homo sapiens. Nature of the assay: Inhibition of N-terminal GST-tagged Hsp90 (unknown origin)-His-tagged Cdc37 middle domain (unknown origin) interaction expressed in Escherichia coli at 50 uM preincubated for 30 mins with GST-tagged Hsp90 (unknown origin) followed by addition of His-tagged Cdc37 middle domain (unknown origin) measured after 1 hr by GST-pulldown assay.

The source made the active and inactive calls. The rule behind the calls is not given here.

In general, inhibition refers to the share of the control response that was lost under treatment. By Kd is commonly meant the constant that tells how readily two partners part at equilibrium. In assay [1], Ac-KHFGMLRRWDD-NH2 registered an inhibition of less than 10%. The molecule further displayed a Kd in assay [2] of 6.9 µM.

Ac-KHFGMLRRW-NH2: the inhibition in assay [1] is less than 10%. The same molecule registered a Kd in assay [2] of 10.07 µM.

Ac-KHFGMLRRWD-NH2 came in with an inhibition in assay [1] of less than 10%. In assay [2], this molecule displayed a Kd of 21 µM.

In the case of `CC(C)c1cc(C(=O)N2Cc3ccc(CN4CCN(C)CC4)cc3C2)c(O)cc1O`, the inhibition in assay [1] amounted to 99.8%.

In assay [1], Ac-KHFGMLRR-NH2 returned an inhibition of less than 10%. Besides, the Kd in assay [2] worked out at 7.41 µM.

Take Ac-HFGMLRR-NH2: the inhibition in assay [1] is less than 10%. The Kd in assay [2] came to 5.99 µM. Also, in assay [3], the inhibition entry is “Active”.
